Reference: PubChem BioAssay (NCI)
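Interpolation was linear, between the two tested concentrations surrounding the appropriate level; five concentrations were tested over 48 hours in 96-well plates. TGI is the concentration that stops growth completely.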

Experiments:
Experiment in all cases: NCI anticancer screen, dose series, 48 h
TK-10 renal = system: TK-10 renal
HOP-62 NSCLC = system: HOP-62 NSCLC
MDA-MB-435 = system: MDA-MB-435
OVCAR-4 ovarian = system: OVCAR-4 ovarian
COLO 205 colon = system: COLO 205 colon
A549 NSCLC = system: A549 NSCLC
NCI-H226 lung = system: NCI-H226 lung
786-0 renal = system: 786-0 renal
SF-268 CNS = system: SF-268 CNS
SK-OV-3 ovarian = system: SK-OV-3 ovarian
SK-MEL-28 melanoma = system: SK-MEL-28 melanoma
SF-539 CNS = system: SF-539 CNS
U251 CNS = system: U251 CNS
OVCAR-8 ovarian = system: OVCAR-8 ovarian
KM12 colon = system: KM12 colon
SK-MEL-5 melanoma = system: SK-MEL-5 melanoma
MOLT-4 leukemia = system: MOLT-4 leukemia
CAKI-1 renal = system: CAKI-1 renal
M14 melanoma = system: M14 melanoma
IGROV1 ovarian = system: IGROV1 ovarian
MDA-N = system: MDA-N
SK-MEL-2 melanoma = system: SK-MEL-2 melanoma
OVCAR-5 ovarian = system: OVCAR-5 ovarian
BT-549 breast = system: BT-549 breast
EKVX NSCLC = system: EKVX NSCLC
SN12C renal = system: SN12C renal
T-47D breast = system: T-47D breast
HT29 colon = system: HT29 colon
UO-31 renal = system: UO-31 renal
MDA-MB-231 breast = system: MDA-MB-231 breast
UACC-257 melanoma = system: UACC-257 melanoma
A498 renal = system: A498 renal
RXF 393 renal = system: RXF 393 renal
NCI-H460 lung = system: NCI-H460 lung
HL-60(TB) leukemia = system: HL-60(TB) leukemia
LOX IMVI melanoma = system: LOX IMVI melanoma
DU-145 prostate = system: DU-145 prostate
SNB-75 CNS = system: SNB-75 CNS
ACHN renal = system: ACHN renal
HCC-2998 colon = system: HCC-2998 colon
HOP-92 NSCLC = system: HOP-92 NSCLC
OVCAR-3 ovarian = system: OVCAR-3 ovarian
SW-620 colon = system: SW-620 colon
MCF7 breast = system: MCF7 breast
NCI-H23 lung = system: NCI-H23 lung
SF-295 CNS = system: SF-295 CNS
SNB-19 CNS = system: SNB-19 CNS
NCI/ADR-RES ovarian = system: NCI/ADR-RES ovarian
HCT-15 colon = system: HCT-15 colon
HCT-116 colon = system: HCT-116 colon
UACC-62 melanoma = system: UACC-62 melanoma
PC-3 prostate = system: PC-3 prostate
MALME-3M melanoma = system: MALME-3M melanoma
RPMI-8226 leukemia = system: RPMI-8226 leukemia
K-562 leukemia = system: K-562 leukemia
CCRF-CEM leukemia = system: CCRF-CEM leukemia

Measured: TGI

CCOP(=O)(OCC)/C(=C\n1c(=S)[nH]c2cc(C)ccc21)C(=O)OC
not listed: PC-3 prostate | MALME-3M melanoma | RPMI-8226 leukemia | K-562 leukemia | CCRF-CEM leukemia
> 100 µM: all other assays above

O=C1C2=Cc3ccccc3OC2(O)Oc2cc(O)cc(O)c21 (configuration not stated)
not listed: UO-31 renal | HL-60(TB) leukemia | OVCAR-3 ovarian | SNB-19 CNS | HCT-15 colon
> 100 µM: all other assays above
